EP4201929A1, “QUINOXALINE THIOREDOXIN REDUCTASE INHIBITORS” (geneXplain GmbH, priority 2021, dated 2023)
pIC50: −log10 of the molar value.

What was measured:
Format in all cases: cell-based
[1] = test system: HCT116-Cas9; test: Growth suppression assay (resazurin); settings: 48 hours of incubation, hydrochloride
Description: (§1) Breast, colon, ovarian, cervical, liver and lung carcinoma cell lines were grown in DMEM supplemented with 10% FBS, and antibiotics were cultured at 37 °C and 5% CO2. […] To obtain an oxygen concentration of 0.05%, the cells were flushed with the premixed gas continuously throughout the experiment.
(§2) Cells were grown in 96-well plates at a density of 3000 cells per well with or without doxycycline and treated with compounds. After 48 hours of incubation the proliferative cell reagent resazurin (Thermo Fisher Scientific) was added to the cells. The degree of resazurin reduction, which reflects cell viability, was measured by microplate reader by monitoring the absorbance at 570 nm and 600 nm, according to the manufacturer.

[2] = test system: MCF7-Cas9; test: Growth suppression assay (resazurin); settings: 48 hours of incubation, hydrochloride
Description: as §1, §2

[3] = test system: HCT116 cells; test: Growth suppression in the presence of antioxidant NAC; settings: HCT116, 5 mM NAC pre-treatment 16h; 2.5, 5 and 10 µM; 24h after treatment
Description: as §2
To find out whether oxidative stress plays a role in cancer cell death induced by 1d*HCl, we tested the extent of growth suppression by the treatment in the presence of antioxidant N-acetyl cysteine (NAC), which neutralize ROS. We pre-treated HCT116 cells with 5 mM NAC. After 16h of incubation with NAC, we treated HCT116 cells with 2.5, 5, and 10 µM of 1d*HCl. We measured the growth suppression 24h after treatment. […] Thus, we conclude that the mechanism of cancer cell growth suppression is dependent on the induction of oxidative stress by the compounds of the present invention.

[4] = molecular target: T1, TrxRl covalent dimers (Homo sapiens, UniProt Q16881); test: Detection of TrxR dimers by Western blot; settings: HCT116 and MCF7 cells, 5 µM, detected as soon as 2h after treatment
T1 construct: endogenous in cells; host or cells: MCF7 (A37, A39); HCT116 (A39)
T1 sequence (Q16881 151-649): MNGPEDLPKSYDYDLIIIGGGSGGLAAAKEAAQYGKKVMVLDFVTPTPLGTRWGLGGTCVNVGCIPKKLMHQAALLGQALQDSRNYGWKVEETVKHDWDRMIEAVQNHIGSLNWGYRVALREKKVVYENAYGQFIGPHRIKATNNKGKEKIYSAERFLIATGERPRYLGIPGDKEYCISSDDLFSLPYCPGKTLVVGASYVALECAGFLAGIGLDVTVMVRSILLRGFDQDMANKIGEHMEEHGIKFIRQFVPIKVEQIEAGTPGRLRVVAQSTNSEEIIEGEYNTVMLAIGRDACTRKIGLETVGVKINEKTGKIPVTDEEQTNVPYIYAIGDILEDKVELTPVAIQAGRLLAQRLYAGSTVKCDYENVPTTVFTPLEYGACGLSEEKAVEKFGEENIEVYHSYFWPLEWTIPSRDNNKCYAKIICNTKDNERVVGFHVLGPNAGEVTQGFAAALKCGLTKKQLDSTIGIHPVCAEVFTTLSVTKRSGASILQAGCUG
Description: (§3) The extraction of total cell lysates and western blot were performed according to standard procedure. The antibodies used for immunoblotting were: p53 (sc-126, Santa Cruz Biotechnology), γH2AX (#07-164, Millipore), TrxRl 19A1 (AbFrontier). Anti-β-actin monoclonal antibody (Millipore) was used as loading control. The horseradish peroxidase-coupled secondary antibodies (Jackson ImmunoResearch) and SuperSignal™ West Dura Extended Duration Substrate detection system (Thermo Fischer Scientific), and images were visualized using ChemiDoc Imaging System (Bio-Rad).
MCF7 or HCT116 cells were treated in culture with 5 or 10 µM of 1d*HCl (Example 4) in complete medium for 2h or 6h. For each case, duplicate drug treated samples were produced plus duplicate control treatment samples using equal volumes of the drug vehicle dimethyl sulfoxide. Detached cells from each biological replicate were washed, suspended in PBS containing protease inhibitors and cells lysed through freeze thaw cycles in liquid N2, according to the reference protocol. Soluble fraction was separated from precipitated protein by ultracentrifugation at 100000 g for 30 minutes at 4°C and TrxRl dimer formation was analysed using Western blot as described above. […]

[5] = test system: p53; test: p53 induction by Western blot; settings: sign of DNA damage
Description: as §3
The majority of chemotherapeutic drugs used currently in the clinic, are DNA damaging drugs. Induction of DNA damage is a very efficient way of elimination of cancer cells. Unfortunately, these drugs induce DNA damage also in normal cells, leading to severe side effects. We addressed the question whether 1d*HCl induces DNA damage. We tested this by detection of a hallmark of DNA damage, induction of phosphorylated histone H2AX, so called γH2AX. We used anti-yH2AX antibody to detect it in cells treated with 1d*HCl.

[6] = Growth suppression with selenium in culture medium; settings: selenium added to culture medium
From the text: To find out whether the inhibition of TrxRl is the major mechanism of action of 1d*HCl, we addressed the question, whether stimulation of TrxRl activity will decrease the growth suppression activity of 1d*HCl. Since TrxR is a selenium-containing enzyme and the concentration of selenium is rate-limiting for TrxRl, we added selenium to culture medium to test whether selenium will alleviate the growth suppression by 1d*HCl.

[7] = test system: cancer cells; test: Cell growth assay in combination with BSO
Description: Further, we tested whether the inhibition of GR by BSO will have additive effect with 1d*HCl. If 1d*HCl mechanism of action includes inhibition of GR, BSO will not have an additive effect. We used a range of concentrations of 1d*HCl and BSO in cell growth assays.
Next, we tested whether the prevention of oxidative stress by NAC will affect the growth suppression by the combination of 1d*HCl and BSO. In the presence of NAC we observed the additive effect of 1d*HCl with 50 µM BSO only at twice higher dose of 1d*HCl - 10 µM.

Cl.N#Cc1c(-c2cccnc2)[n+]([O-])c2cc(F)c(N3CCOCC3)cc2[n+]1[O-] [1d*HCl, 6-Fluoro-7-(morpholin-4-yl)-3-(pyridin-3-yl)quinoxaline-2-carbonitrile-1,4-dioxide hydrochloride]
pIC50 [1]: 6.16
pIC50 [2]: 5.80
growth suppression in the presence of NAC [3]: almost completely abolished the growth suppression
formation of TrxRl covalent dimers (130 kDa band) [4]: induces the formation of TrxRl covalent dimers
induction of p53 [5]: did not detect a significant induction of p53
growth suppression in the presence of selenium [6]: less efficient
effect of combination with BSO on cell growth ([7]; 5 µM 1d*HCl with 50 µM BSO): have an additive effect and completely eradicated cancer cells
dose of 1d*HCl at which additive effect with 50 µM BSO is observed ([7]; in the presence of NAC): 10 µM
